# Values of other authors as cited in patent US20230270707A1, “ORAL LIQUID PHARMACEUTICAL COMPOSITIONS OF ISOTRETINOIN” (IDRS Labs Private Limited, priority 2020, published 2023).
# Like-named read-outs stand apart in the source and are kept apart here.
# Columns and labels:
# [1] = target plasma level of isotretinoin ≥2 μM
compound,measurement,setting,value
"CC1=C(/C=C/C(C)=C/C=C/C(C)=C\C(=O)O)C(C)(C)CCC1 [isotretinoin, 13-cis retinoic acid]",patients who achieved the target Cmax,[1]; drug extracted from capsules and mixed with food or given via nasogastric tube,55%
same,patients who achieved the target Cmax,[1]; patients able to swallow the capsules,92.5%
same,solubility in water,,practically insoluble in water
